# Like-named read-outs stand apart in the source and are kept apart here.
# Test: Determination of solubility of monomers in PBS (HPLC of filtrate against calibration curve)
# Type: physicochemical
# Conditions: monomer in PBS (pH 7.4), filtered; for solubility at 2 h: aqueous buffer, thermodynamic from solid
# Procedure: About 30 mg of the monomer and 2 mL of PBS (pH 7.4) were added to a 2 dram vial. The vial was agitated on a vortex mixer for 2 h. If all the solid dissolved, more solid was added and agitation was continued. The mixture was filtered using a syringe filter to remove undissolved monomer. The clear filtrate was analyzed by HPLC by injecting 5 microliter of the filtrate. The area of the peak obtained was measured. A calibration curve was obtained by injecting known concentration of the monomer in methanol and plotting concentration against the area of the peaks obtained. Using this calibration curve the solubility of the monomer in PBS at ambient temperature was determined.
# To determine the solubility at 37° C., the vials were placed in an incubator at 37° C. for 2 h. The mixture was then quickly filtered using syringe filter and then diluted 2× with PBS to prevent precipitation of the monomer. The solubility is determined using procedures similar to that used at room temperature solubility.
# [1] = ambient temperature / 25° C., agitated 2 h
"Solubility, mg/mL, 37° C. (incubator at 37° C. for 2 h, diluted 2× with PBS) [mg/mL]","solubility at 2 h (ambient temperature / 25° C., agitated 2 h, read-out: Solubility, mg/mL, 25° C.) [mg/mL]","solubility at 2 h (incubator at 37° C. for 2 h, diluted 2× with PBS, read-out: Solubility, mg/mL, 37° C.) [mg/mL]",SMILES,"Solubility, mg/mL, 25° C. [1] [mg/mL]"
0.43,,,"CCOC(=O)C(Cc1c[nH]c2ccc(O)cc12)NC(=O)CCc1ccc(O)cc1 (stereo not shown) [DAT-5-hydroxytryptophan ethyl ester, DAT-5-Hydroxytryptophan Ethyl Ester]",0.15
,,,CCOC(=O)C(Cc1ccc(Oc2ccc(O)cc2)cc1)NC(=O)CCc1ccc(O)cc1 (stereo not shown) [DAT-Thyronine ethyl ester],<0.05
,7.7,14.1,"CCOC(=O)[C@H](CO)NC(=O)CCc1ccc(O)cc1 [DAT-serine ethyl ester, Desaminotyrosyl Serine Ethyl Ester]",
,,,"CCOC(=O)C1CC(O)CN1C(=O)CCc1ccc(O)cc1 (stereo not drawn) [DAT-trans-Hydroxyproline ethyl ester, DAT-Hydroxyproline Ethyl Ester]",12
,,,"CCOC(=O)[C@H](Cc1ccc(O)cc1)NC(=O)CCc1ccc(O)cc1 [DAT-tyrosine ethyl ester (DTE), DAT-tyrosine ethyl ester, reference compound]",0.74
